The results in this text go back to patent US20160045505A1, “COMPOUNDS AND COMPOSITIONS FOR THE TREATMENT OF PARASITIC DISEASES” (NOVARTIS AG, priority 2013, published 2016).

Where two headings read alike, the source gives them in different places.

In assay [1] the test system is Trypanosoma cruzi amastigotes (Tulahuen strain expressing Lac-Z) cultured in 3T3 fibroblast cells. The assay can be described thus: microbe, parasite or virus in culture. The conditions noted are these: T. cruzi amastigotes in 3T3 fibroblast cells, read-out: T cruzi EC50. Type of assay: cell-based.
Assay [2] concerns Leishmania donovani axenic amastigote parasites. The assay can be described thus: Leishmania donovani axenic amastigote proliferation assay (Cell TiterGlo luminescence, 2 day incubation). Type of assay: cell-based. Particulars: read-out: L. donovani amastigotes EC50.
In assay [3] the test system is L. donovani HU3 strain in mouse peritoneal macrophages. In words: Assay for proliferation of Leishmania parasites in infected mouse peritoneal macrophages (SybrGreen staining, high-content imaging, 5 days). Format: cell-based, Leishmania donovani. Particulars: L. donovani in mouse peritoneal macrophages, read-out: L. donovani Macrophage EC50.
Assay [4] deals with Trypanosoma brucei Lister 427 strain, bloodstream form. In words: Assay for proliferation of kinetoplastid parasite Trypanosoma brucei (Cell Titer Glo, 48 hours). Type of assay: cell-based. The conditions noted are these: T. brucei Lister 427 bloodstream form, read-out: T. brucei EC50. A digest of the protocol: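 Bloodstream-form T. brucei Lister 427 in HMI-9 medium was exposed to compound (DMSO vehicle) for 48 hours at 37° C, 5% CO2. Parasite growth was read as ATP by CellTiter-Glo luminescence, with EC50 calculated from percent inhibition.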

Where [5] appears, read: Trypanosoma cruzi, TULAHUEN, Fibroblast, inhibition of proliferation.
Where [6] appears, read: Leishmania donovani, axenic amastigotes, inhibition of proliferation.
The mark [7] stands for this setting: Leishmania donovani, Peritoneal macrophage, inhibition of proliferation.
[8] abbreviates: Trypanosoma brucei, inhibition of proliferation.
Setting [9] is: Trypanosoma cruzi, TULAHUEN, Fibroblast.
[10] abbreviates: Leishmania donovani, L. donovani axenic amastigotes.
The mark [11] stands for this setting: Leishmania donovani, Peritoneal macrophage.

Regarding `CO[C@@H]1CCN(C(=O)Nc2ccc(Cl)c(-c3cn4cc(NC(=O)OC(C)C)cnc4n3)c2)C1` [Compound 265], the EC50 in assay [1] (setting [5]) was found to be 3930 nM; in assay [2] (setting [6]) it was 978 nM; in assay [3] (setting [7]), 4260 nM; in assay [4] (setting [8]), 1550 nM.

As to `Cc1nc(C)c(C(=O)Nc2ccc(F)c(-c3cn4cc(NC(=O)c5oc(C)nc5C)cnc4n3)c2)o1` [Compound 150], the EC50 in assay [1] (setting [5]) is greater than 20000 nM; in assay [2] (setting [6]) it was 532 nM; in assay [3] (setting [7]), 43800 nM; in assay [4] (setting [8]), 506 nM.

Turning to `O=C(Nc1ccc(F)c(-c2cn3cc(-c4cccnc4)cnc3n2)c1)N1CC(F)C1` [Compound 401], the EC50 in assay [1] (setting [9]) stood at 445 nM; in assay [2] (setting [10]) it was 94 nM; in assay [3] (setting [11]) it was 263 nM; in assay [4] (Trypanosoma brucei), 34 nM.

Regarding `CN(C)C(=O)Nc1ccc(F)c(-c2cn3cc(N(C)C)cnc3n2)c1` [Compound 583, 3-(3-(6-(dimethylamino)imidazo[1,2-a]pyrimidin-2-yl)-4-fluorophenyl)-1,1-dimethylurea], the EC50 was found to be 377 nM in assay [1] (setting [9]), 869 nM in assay [2] (setting [10]), 1790 nM in assay [3] (setting [11]) and 139 nM in assay [4] (Trypanosoma brucei).

On to `CC1(C(=O)Nc2cnc3nc(-c4cc(NC(=O)N5CCCC5)ccc4F)cn3c2)CCCO1` (stereo not drawn) [Compound 127], for which the EC50 in assay [1] (setting [5]) stood at 1980 nM; in assay [2] (setting [6]) it was 561 nM; in assay [3] (setting [7]) it was 2120 nM; in assay [4] (setting [8]), 74 nM.

With `Cn1ccnc1C(=O)Nc1cnc2nc(-c3cc(NC(=O)N4CCCC4)ccc3F)cn2c1` [Compound 144], the EC50 is greater than 20000 nM in assay [1] (setting [5]), 555 nM in assay [2] (setting [6]), greater than 50000 nM in assay [3] (setting [7]) and 164 nM in assay [4] (setting [8]).

`CC(C)CNc1cnc2nc(-c3cc(NC(=O)N4CCCC4)ccc3F)cn2c1` [Compound 472]: the EC50 in assay [1] (setting [9]) stood at 297 nM; in assay [2] (setting [10]) it was 210 nM; in assay [3] (setting [11]), 737 nM; in assay [4] (Trypanosoma brucei), 58 nM.

Consider `Cc1nc(C)c(C(=O)Nc2ccc(F)c(-c3cn4cc(NC(=O)c5c[nH]cn5)cnc4n3)c2)o1` [Compound 167], for which the EC50 in assay [1] (setting [5]) is greater than 20000 nM; in assay [2] (setting [6]), 10800 nM; in assay [3] (setting [7]), greater than 50000 nM; in assay [4] (setting [8]), 904 nM.

In the case of `Cc1nc(C)c(C(=O)Nc2ccc(F)c(-c3cn4cc(-c5cccc(N6CCN(C(=O)OC(C)(C)C)CC6)n5)cnc4n3)c2)o1` [Compound 368], the EC50 in assay [1] (setting [5]) came to 135 nM; in assay [2] (setting [6]), 463 nM; in assay [3] (setting [7]) it was 905 nM; in assay [4] (setting [8]), 498 nM.

Regarding `O=C(Nc1ccc(F)c(-c2cn3cc(NCCC(F)(F)F)cnc3n2)c1)N1CCCC1` [Compound 478], the EC50 in assay [1] (setting [9]) was 5520 nM; in assay [2] (setting [10]) it was 4720 nM; in assay [3] (setting [11]), greater than 16400 nM; in assay [4] (Trypanosoma brucei), 533 nM.

On to `Cc1nc(C)c(C(=O)Nc2ccc(F)c(-c3cn4cc(NC(=O)c5ncco5)cnc4n3)c2)o1` [Compound 188], for which the concentration giving a half-maximal response (EC50) in assay [1] (setting [5]) was 1230 nM; in assay [2] (setting [6]) it was 226 nM; in assay [3] (setting [7]), greater than 5600 nM; in assay [4] (setting [8]), 185 nM.

On to `CC(C)OC(=O)Nc1cnc2nc(-c3cc(NC(=O)N4CC(F)C4)ccc3F)cn2c1` [Compound 287], for which the concentration for a half-maximal effect (EC50) in assay [1] (setting [5]) worked out at 1430 nM; in assay [2] (setting [6]), 120 nM; in assay [3] (setting [7]), 402 nM; in assay [4] (setting [8]), 77 nM.

In the case of `C=C(C)c1cnc2nc(-c3cc(NC(=O)c4oc(C)nc4C)ccc3F)cn2c1` [Compound 537, N-(4-fluoro-3-(6-(prop-1-en-2-yl)imidazo[1,2-a]pyrimidin-2-yl)phenyl)-2,4-dimethyloxazole-5-carboxamide], the EC50 is 103 nM in assay [1] (setting [9]), 124 nM in assay [2] (setting [10]), 286 nM in assay [3] (setting [11]) and 164 nM in assay [4] (Trypanosoma brucei).

Take `CCN(C)C(=O)Nc1ccc(Cl)c(-c2cn3cc(NC(=O)OC(C)C)cnc3n2)c1` [Compound 250]: the EC50 in assay [1] (setting [5]) worked out at 631 nM; in assay [2] (setting [6]) it was 498 nM; in assay [3] (setting [7]) it was 839 nM; in assay [4] (setting [8]), 112 nM.

`CC(C)OC(=O)Nc1cnc2nc(-c3cc(NC(=O)c4cn5cccnc5n4)ccc3Cl)cn2c1` [Compound 49]: the EC50 is greater than 20000 nM in assay [1] (setting [5]), greater than 25000 nM in assay [2] (setting [6]), greater than 50000 nM in assay [3] (setting [7]) and greater than 50000 nM in assay [4] (setting [8]).

For `O=C(Nc1ccc(F)c(-c2cn3cc(C4CC4)cnc3n2)c1)N1CC(F)(F)C1` [Compound 604], the EC50 in assay [1] (setting [9]) is 46 nM; in assay [2] (setting [10]) it was 22 nM; in assay [3] (setting [11]) it was 41 nM; in assay [4] (Trypanosoma brucei), 51 nM.

For `Cc1nc(C)c(C(=O)Nc2ccc(F)c(-c3cn4cc(NC5=NC(C)(C)CO5)cnc4n3)c2)o1` [Compound 505], the EC50 in assay [1] (setting [9]) turned out to be 5000 nM; in assay [2] (setting [10]), 1170 nM; in assay [3] (setting [11]) it was 3480 nM; in assay [4] (Trypanosoma brucei) it was 845 nM.

`COCCOCC(=O)Nc1cnc2nc(-c3cc(NC(=O)N4CCCC4)ccc3F)cn2c1` [Compound 137]: the concentration giving a half-maximal response (EC50) in assay [1] (setting [5]) came out at 8010 nM; in assay [2] (setting [6]) it was 2150 nM; in assay [3] (setting [7]), 24800 nM; in assay [4] (setting [8]), 406 nM.

Regarding `Cc1nc(C)c(C(=O)Nc2ccc(F)c(-c3cn4cc(-c5ccn[nH]5)cnc4n3)c2)o1` [Compound 369], the EC50 in assay [1] (setting [5]) amounted to 988 nM; in assay [2] (setting [6]) it was 282 nM; in assay [3] (setting [7]), 294 nM; in assay [4] (setting [8]), 154 nM.

With `Cc1nc(C)c(C(=O)Nc2ccc(F)c(-c3cn4cc(-c5ccc(F)cc5)cnc4n3)c2)o1` [Compound 396], the EC50 in assay [1] (setting [9]) came out at 17 nM; in assay [2] (setting [10]), 55 nM; in assay [3] (setting [11]), 88 nM; in assay [4] (Trypanosoma brucei), 42 nM.

Regarding `Cc1nc(C)c(C(=O)Nc2ccc(F)c(-c3cn4cc(NC(=O)C5CCCCO5)cnc4n3)c2)o1` (single isomer, unassigned) [Compound 185], the EC50 was determined as 1070 nM in assay [1] (inhibition of proliferation); 462 nM in assay [2] (axenic amastigotes, inhibition of proliferation); 1140 nM in assay [3] (inhibition of proliferation); 954 nM in assay [4] (inhibition of proliferation).

In the case of `Cc1ncc(C(=O)Nc2ccc(F)c(-c3cn4cc(-c5ccccc5)cnc4n3)c2)o1` [Compound 329], the EC50 in assay [1] (setting [5]) worked out at 7 nM; in assay [2] (setting [6]), 26 nM; in assay [3] (setting [7]), 57 nM; in assay [4] (setting [8]) it was 55 nM.

As for `Cc1cncc(-c2cnc3nc(-c4cc(NC(=O)c5oc(C)nc5C)ccc4F)cn3c2)c1` [Compound 440], the EC50 in assay [1] (setting [9]) amounted to 238 nM; in assay [2] (setting [10]), 119 nM; in assay [3] (setting [11]) it was 200 nM; in assay [4] (Trypanosoma brucei) it was 315 nM.

Regarding `CC(C)OC(=O)Nc1cnc2nc(-c3cc(NC(=O)N4CCOCC4)ccc3Cl)cn2c1` [Compound 216], the EC50 is 11500 nM in assay [1] (setting [5]), 4430 nM in assay [2] (setting [6]), greater than 50000 nM in assay [3] (setting [7]) and 3130 nM in assay [4] (setting [8]).

In the case of `CN(C)C(=O)Nc1ccc(F)c(-c2cn3cc(C(F)F)cnc3n2)c1` [Compound 239], the EC50 in assay [1] (setting [5]) came out at 372 nM; in assay [2] (setting [6]) it was 515 nM; in assay [3] (setting [7]), 2200 nM; in assay [4] (setting [8]), 350 nM.

In the case of `O=C(Nc1ccc(F)c(-c2cn3cc(C(F)(F)F)cnc3n2)c1)N1CC[C@H](F)C1` [Compound 297], the EC50 in assay [1] (setting [5]) was determined as 37 nM; in assay [2] (setting [6]), 52 nM; in assay [3] (setting [7]), 223 nM; in assay [4] (setting [8]), 51 nM.

Consider `Cc1nc(C)c(C(=O)Nc2ccc(F)c(-c3cn4cc(NC(=O)OCCF)cnc4n3)c2)o1` [Compound 307], for which the 50% effective concentration (EC50) in assay [1] (setting [5]) was 2540 nM; in assay [2] (setting [6]) it was 249 nM; in assay [3] (setting [7]), 428 nM; in assay [4] (setting [8]), 356 nM.
